Legend:
[1] = tested on: skin wrinkles on the face of female subjects; assay: Skin wrinkle improvement by computer aided laser profilometry (Skin Visiometer, silicone replicas); assay type: in vivo, human; conditions: 9 weeks
Protocol: The effects of the cosmetic compositions of Example 1 and Comparative Example 1 and 2 on skin wrinkle improvement were determined by computer aided laser profilometry.
It involved sixteen female subjects of 30 years and over. The cosmetic compositions of Example 1 and Comparative Examples 1 and 2 were applied on the face (area of 2×2 cm2) of the test subjects, once a day with dose of 0.05 g for 9 weeks. Then, replicas of their skin wrinkles were prepared using white plastic silicon precision moulding compound. The changes in the skin wrinkles of the replicas were detected with Skin Visiometer (SV600 manufactured by Courage+Khazaka electronic GmbH, Germany). Three-dimensional images of the replicas were analyzed with a CCD camera. The skin wrinkle improvement effect was determined as average roughness of the wrinkles (Rz) according to the following numerical formula I:
Rz=(R1+R2+ . . . +Rn−1+Rn)/Number of wrinkles(n) (I)
Wherein, Rn is the roughness of each wrinkle and n is the number of the wrinkles.

[2] = tested on: skin of the upper outer arm of 16 human volunteers; assay: Skin irritant potential, modified human 4-h patch test; assay type: in vivo
Protocol: The skin irritant potential of the cosmetic compositions of Example 1 and Comparative Example 1 and 2 were determined using a modification of the human 4-h patch test (Basketter D A, et al., Food Chem Toxicol 1997,:35: 845-852), involving application of 0.2 ml of the composition to be tested on a 25 mm plain Hill Top Chamber containing a Webril pad (Hill Top Companies, Cincinatti, Ohio, USA) to the skin of the upper outer arm of 16 human volunteers. Both upper arms of the panelist were used. Patches were applied in a balanced random order.
After 24 hours, the patches were removed and then the test areas were marked with a marking pen. After each lapse of 24, 48 and 72 hours, the test areas were observed and treatment sites were assessed for the presence of irritation using a 4 point scale (Table 2) at 24, 48 and 72 h after patch removal

[3] = emulsion (lotion) type formulation
[4] = lotion type cosmetic preparation, 0.20 wt% with 0.20 wt% retinyl palmitate
[5] = solution type formulation, 0.2 wt% with 0.2 wt% retinyl palmitate

| SMILES | effect on retinoid wrinkle improvement [1, 3] | efficiency relative to piceatannol on wrinkle improvement ([1]; emulsion type cosmetic preparations) | effect on retinoid wrinkle improvement ([1]; solution type formulation) | effect of addition on irritancy of retinyl palmitate [2, 4] | effect of addition on irritancy of retinyl palmitate [2, 5] |
| --- | --- | --- | --- | --- | --- |
| OC[C@H]1O[C@@H](Oc2cc(O)cc(/C=C/c3ccc(O)c(O)c3)c2)[C@H](O)[C@@H](O)[C@@H]1O (relative stereo) [astringin, trans-(3,5,3′,4′-tetrahydroxystilbene)-3-O-beta-d-glucopyranoside] | enhances the effect of retinol on wrinkle improvement | seems to be m ore efficient than piceatannol | enhances the effect of retinol on wrinkle improvement | clearly reduced the irritancy of retinyl palmitate | clearly reduced the irritancy of retinyl palmitate |
| Oc1cc(O)cc(/C=C/c2ccc(O)c(O)c2)c1 [piceatannol, trans-3,4,3′,5′-tetrahydroxystilbene] | enhances the effect of retinol on wrinkle improvement |  | enhances the effect of retinol on wrinkle improvement | clearly reduced the irritancy of retinyl palmitate | clearly reduced the irritancy of retinyl palmitate |

From patent US20080118449A1, “COSMETIC FORMULATIONS OF PICEATANNOL AND RETINOIDS AND METHODS OF USE THEREOF” (priority 2006, published 2008)
